Tests used:
[1] = Distribution (proportion of total relative concentration) of midazolam and metabolites in plasma after discontinuation of MDZ infusion; settings: range over sampling times 0 to 24 h
Method: Serum samples for analyzing the plasma concentration of MDZ and its metabolites were obtained immediately (baseline) and at 4, 8, 12, and 24 h after the discontinuation of MDZ infusion.
The distribution of each compound was assessed by calculating its relative concentration as a ratio to the total sum of relative concentrations at each sampling time.

[2] = cited from earlier work
[3] = Non-compartmental pharmacokinetics of midazolam and metabolites in plasma after discontinuation of MDZ infusion (LC-MS/MS); type: in vivo, human; settings: for AUClast / AUCinf: relative concentration; for MRT inf: read-out: MRTinf (mean residence time); for MRT last: read-out: MRTlast (mean residence time)
Method: The PK parameters were obtained using a non-compartmental method with Phoenix WinNonlin (version 8.3.5; Certara, USA). […] The AUC from time 0 to infinity (AUCinf) was calculated as AUClast + Clast/λz, where Clast is the last measurable concentration and λz is the elimination rate constant. The mean residence time was calculated as […]. The estimated t1/2 was calculated from λz based on a previously reported equation[12].
All samples were immediately frozen and stored at –70 ℃ after centrifugation with 3,000 rpm for 10 min and then sent to the Nutrition Food Microbiology Laboratory at Chungnam National University (http://nfml.kr/) to determine the concentration of midazolam and its metabolites using liquid chromatography with tandem mass spectrometry analysis.
The sample preparation method was performed as previously described with some modifications. A 20 µL of sample was mixed with 180 µL of 80% methanol, followed by protein precipitation at 4 °C for 30 min. Subsequently, the supernatant was harvested and added to 1800 µL of distilled water. The pre-treated samples were loaded onto an Oasis HLB Vac RC cartridge (30 mg, 20 cc, Waters) that had been preconditioned with 6 mL of methanol and 6 mL of distilled water. The cartridge was washed with 6 mL distilled water and sequentially eluted with methanol (4 mL). The eluted samples were dried using an evaporator and resuspended with 0.2 mL of methanol for analysis.

[4] = Awakening time and estimated midazolam concentration at awakening (simple linear regression); type: in vivo, human
Method: The primary outcome of this study was the distribution and elimination of MDZ and its metabolites over 24 h following the discontinuation of MDZ infusion after targeted temperature management (33 or 36℃). The secondary outcome was the association between the PK parameters and awakening time in a subgroup of patients who experienced neurological recovery.
We investigated the PK parameters for all compounds in each individual. […] Among these four patients, the mean of the estimated MDZ concentration was 16.8 ng/mL.
Figure 4 Simple linear regression analysis between the absolute concentration of midazolam and awakening time in the subgroup of awakened patients after post-resuscitation care (n = 7). […] The regression line (grid line) is followed the regression equation: Y = − 4.506 × X + 105.5.

[5] = after discontinuation of MDZ infusion, mean ± SD
[6] = plasma, 0 to 24 h after discontinuation of MDZ infusion, arithmetic mean ± SD
[7] = plasma, time 0 to infinity after discontinuation of MDZ infusion, mean ± SD
[8] = human, plasma, intravenous, after discontinuation of MDZ infusion, mean ± SD

| Compound | MRTinf (mean residence time) [3, 5] [h] | MRTlast (mean residence time) [3, 5] [h] | t1/2 (elimination half-life) [3, 5] [h] | AUClast [3, 6] | AUCinf [3, 7] | further results |
| --- | --- | --- | --- | --- | --- | --- |
| OCc1ncc2n1-c1ccc(Cl)cc1C(c1ccccc1F)=NC2 [1-OH-MDZ, 1-hydroxymidazolam] | 10.5 ± 5.2 | 6.0 ± 2.3 | 8.1 ± 4.9 | 1117.2 ± 1643.5 h*ppm | 1419.1 ± 1845.5 h*ppm | Proportion in total concentration [1]: 3.3–4.2%; Potency for sedation effect [2]: 60–63% |
| O=C(O)[C@H]1O[C@@H](OCc2ncc3n2-c2ccc(Cl)cc2C(c2ccccc2F)=NC3)[C@H](O)[C@@H](O)[C@@H]1O [1-OH-MDZ-Glu, 1-hydroxymidazolam glucuronide] | 21.8 ± 26.8 | 6.8 ± 2.4 | 15.4 ± 19.9 | 9193.0 ± 13,958.4 h*ppm | 14,027.8 ± 15,486.2 h*ppm | Pharmacological potency (sedation) [2]: < 6%; Potency for sedation [2]: 6–10% |
| Cc1ncc2n1-c1ccc(Cl)cc1C(c1ccccc1F)=NC2O (stereo not drawn) [4-OH-MDZ, 4-hydroxymidazolam] |  |  |  | 172.5 ± 268.0 h*ppm | 204.7 ± 294.8 h*ppm | Potency for sedation [2]: 0–2%; MRT inf [3, 8]: 10 ± 4.8 h; MRT last [3, 8]: 5.6 ± 1.5 h; half-life ([3]; human, plasma, intravenous, after discontinuation of MDZ infusion, mean ± SD, read-out: t1/2 (elimination half-life) (converted)): 7.3 ± 3.8 h |
| Cc1ncc2n1-c1ccc(Cl)cc1C(c1ccccc1F)=NC2O[C@@H]1O[C@H](C(=O)O)[C@@H](O)[C@H](O)[C@H]1O (stereo partly drawn) [4-OH-MDZ-Glu, 4-hydroxymidazolam glucuronide] | 7.9 ± 1.4 | 6.4 ± 2.2 | 5.4 ± 0.7 | 29.8 ± 24.4 h*ppm | 33.3 ± 34.3 h*ppm |  |
| Cc1ncc2n1-c1ccc(Cl)cc1C(c1ccccc1F)=NC2 [MDZ, midazolam] |  |  | 6.2 ± 3.9 |  |  | Proportion in total concentration [1]: 21.2–38.4%; concentration at 16.6 h ([4]; human, plasma, intravenous, 0.15 mg/kg/h, from regression equation Y = − 4.506 × X + 105.5 at 16.6 h, awakened patients n = 7, read-out: Estimated concentration of midazolam at the subgroup awakening time): 30.7 ng/mL; Mean of the estimated MDZ concentration at awakening time ([4]; individual regression analysis, four out of seven awakened patients): 16.8 ng/mL; Awakening time in the subgroup after discontinuation of the midazolam infusion ([4]; subgroup of awakened patients n = 7): 16.6 h; Awaken time after discontinuation of midazolam intravenous infusion ([4]; subject #1): 9.6 h; Estimated midazolam concentration at awaken time ([4]; subject #1): 32.3 ng/mL; Awaken time after discontinuation of midazolam intravenous infusion ([4]; subject #2): 10.4 h; Estimated midazolam concentration at awaken time ([4]; subject #2): 20.8 ng/mL; Awaken time after discontinuation of midazolam intravenous infusion ([4]; subject #3): 9.6 h; Estimated midazolam concentration at awaken time ([4]; subject #3): 2.2 ng/mL; Awaken time after discontinuation of midazolam intravenous infusion ([4]; subject #4): 7.1 h; Estimated midazolam concentration at awaken time ([4]; subject #4): 11.9 ng/mL; AUC(0-t) ([3]; human, intravenous, plasma, 0 to 24 h after discontinuation of MDZ infusion, absolute concentration, arithmetic mean ± SD): 1770 ± 2740 ng·h/mL; AUC(0-inf) ([3]; human, intravenous, plasma, time 0 to infinity after discontinuation of MDZ infusion, absolute concentration, mean ± SD): 2110 ± 3050 ng·h/mL; MRT inf [3, 8]: 8.2 ± 5.2 h; MRT last [3, 8]: 4.9 ± 1.6 h |
| di-hydroxymidazolam glucuronide [Di-OH-MDZ-Glu] | 19.2 ± 13.0 | 6.4 ± 2.1 | 14.3 ± 9.6 | 187.4 ± 272.0 h*ppm | 200.2 ± 307.1 h*ppm |  |
| dihydroxymidazolam [Di-OH-MDZ] | 21.0 ± 19.8 | 6.4 ± 2.5 | 14.5 ± 13.7 | 38.2 ± 49.8 h*ppm | 56.2 ± 52.1 h*ppm |  |
| midazolam glucuronide [MDZ-Glu] | 16.2 ± 24.1 | 5.8 ± 1.9 |  |  |  |  |

Source: publication PMC10894853, “Distribution and elimination kinetics of midazolam and metabolites after post-resuscitation care: a prospective observational study” (Scientific Reports, 2024)
